In patent publication US10538554B2, “Peptides and uses therefor as antiviral agents” (priority 2015, dated 2020):
Bridge positions count the residues as written; N and C are the ends. Square brackets hold non-standard residues; d marks the D form. Peptide text beside a SMILES is read from it.

Tests used:
H3N8 A/Miami/2/63 = conditions: A/Miami/2/63, 48 h, 500 μM
[1] = system: H1N1 A1/Malaysia/302/1954; conditions: A1/Malaysia/302/1954, 48 h, 500 μM
H9N2 A/Iran/16/2000 = conditions: 48 h, 500 μM

SMILES | % inhibition H3N8 (H3N8 A/Miami/2/63) [%] | % inhibition H1N1 [1] [%] | % inhibition H9N2 (H9N2 A/Iran/16/2000) [%]
CC[C@@H](C)[C@H]1NC(=O)[C@@H](Cc2ccccc2)NC(=O)[C@@H](CCCNC(=N)N)NC(=O)[C@@H](CO)NC(=O)[C@@H](CC(=O)O)NC(=O)[C@@H]([C@H](C)O)NC(=O)[C@H](NC(=O)[C@@H](CCCCN)NC(=O)[C@@H](CCCCN)NC(=O)[C@@H](CCCNC(=N)N)NC(=O)[C@H](N)CCCNC(=N)N)CSSC[C@H](C(=O)O)NC(=O)[C@@H](CC(N)=O)NC1=O [PSP II A3, H-rrkkctdsrfinc-OH] (H-[dR][dR][dK][dK][dC][dT][dD][dS][dR][dF][dI][dN][dC]-OH; disulfide 5-13) | 85.2 | 44.8 | 40
CC[C@@H](C)[C@H]1NC(=O)[C@@H](Cc2ccccc2)NC(=O)[C@@H](CCCNC(=N)N)NC(=O)[C@@H](CO)NC(=O)[C@@H](CCCCN)NC(=O)[C@@H]([C@H](C)O)NC(=O)[C@H](NC(=O)[C@@H](CCCCN)NC(=O)[C@@H](CCCCN)NC(=O)[C@@H](CCCNC(=N)N)NC(=O)[C@H](N)CCCNC(=N)N)CSSC[C@H](C(=O)O)NC(=O)[C@@H](CC(N)=O)NC1=O [PSP II A9, H-rrkkctksrfinc-OH] (H-[dR][dR][dK][dK][dC][dT][dK][dS][dR][dF][dI][dN][dC]-OH; disulfide 5-13) | 77.8 | 81 | 50
CC[C@@H](C)[C@H]1NC(=O)[C@@H](Cc2ccccc2)NC(=O)[C@@H](CCCNC(=N)N)NC(=O)[C@@H](CO)NC(=O)[C@@H]([C@H](C)CC)NC(=O)[C@@H]([C@H](C)O)NC(=O)[C@H](NC(=O)[C@@H](CCCCN)NC(=O)[C@@H](CCCCN)NC(=O)[C@@H](CCCNC(=N)N)NC(=O)[C@H](N)CCCNC(=N)N)CSSC[C@H](C(=O)O)NC(=O)[C@@H](CC(N)=O)NC1=O [PSP II A8, H-rrkkctisrfinc-OH] (H-[dR][dR][dK][dK][dC][dT][dI][dS][dR][dF][dI][dN][dC]-OH; disulfide 5-13) | 77.8 | 75 | 20
CC[C@@H](C)[C@H]1NC(=O)[C@@H](Cc2ccccc2)NC(=O)[C@@H](CCCNC(=N)N)NC(=O)[C@@H](CO)NC(=O)[C@@H](C)NC(=O)[C@@H]([C@H](C)O)NC(=O)[C@H](NC(=O)[C@@H](CCCCN)NC(=O)[C@@H](CCCCN)NC(=O)[C@@H](CCCNC(=N)N)NC(=O)[C@H](N)CCCNC(=N)N)CSSC[C@H](C(=O)O)NC(=O)[C@@H](CC(N)=O)NC1=O [PSP II A1, H-rrkkctasrfinc-OH] (H-[dR][dR][dK][dK][dC][dT][dA][dS][dR][dF][dI][dN][dC]-OH; disulfide 5-13) | 25.9 |  | 40
CC[C@@H](C)[C@H]1NC(=O)[C@@H](Cc2ccccc2)NC(=O)[C@@H](CCCNC(=N)N)NC(=O)[C@@H](CO)NC(=O)[C@@H](Cc2ccccc2)NC(=O)[C@@H]([C@H](C)O)NC(=O)[C@H](NC(=O)[C@@H](CCCCN)NC(=O)[C@@H](CCCCN)NC(=O)[C@@H](CCCNC(=N)N)NC(=O)[C@H](N)CCCNC(=N)N)CSSC[C@H](C(=O)O)NC(=O)[C@@H](CC(N)=O)NC1=O [PSP II A5, H-rrkkctfsrfinc-OH] (H-[dR][dR][dK][dK][dC][dT][dF][dS][dR][dF][dI][dN][dC]-OH; disulfide 5-13) | 100 | 82.8 | 50
CC[C@@H](C)[C@H]1NC(=O)[C@@H](Cc2ccccc2)NC(=O)[C@@H](CCCNC(=N)N)NC(=O)[C@@H](CO)NC(=O)[C@@H](Cc2c[nH]c3ccccc23)NC(=O)[C@@H]([C@H](C)O)NC(=O)[C@H](NC(=O)[C@@H](CCCCN)NC(=O)[C@@H](CCCCN)NC(=O)[C@@H](CCCNC(=N)N)NC(=O)[C@H](N)CCCNC(=N)N)CSSC[C@H](C(=O)O)NC(=O)[C@@H](CC(N)=O)NC1=O [PSP II A19, H-rrkkctwsrfinc-OH] (H-[dR][dR][dK][dK][dC][dT][dW][dS][dR][dF][dI][dN][dC]-OH; disulfide 5-13) | 82.4 | 88.4 | 100
C[C@H](O)[C@H]1NC(=O)[C@H](N)CSSC[C@H](C(=O)O)NC(=O)[C@@H](CC(N)=O)NC(=O)[C@@H](CO)NC(=O)[C@@H](Cc2ccccc2)NC(=O)[C@@H](CCCNC(=N)N)NC(=O)[C@@H](CO)NC(=O)[C@@H](CCCCN)NC1=O [PSP 16, H-ctksrfsnc-OH] (H-[dC][dT][dK][dS][dR][dF][dS][dN][dC]-OH; disulfide 1-9) | 71.1 | 13.5 | 45.5
CC[C@@H](C)[C@H]1NC(=O)[C@@H](Cc2ccccc2)NC(=O)[C@@H](CCCNC(=N)N)NC(=O)[C@@H](CO)NC(=O)[C@@H](CCCNC(=N)N)NC(=O)[C@@H]([C@H](C)O)NC(=O)[C@H](NC(=O)[C@@H](CCCCN)NC(=O)[C@@H](CCCCN)NC(=O)[C@@H](CCCNC(=N)N)NC(=O)[C@H](N)CCCNC(=N)N)CSSC[C@H](C(=O)O)NC(=O)[C@@H](CC(N)=O)NC1=O [PSP II A15, H-rrkkctrsrfinc-OH] (H-[dR][dR][dK][dK][dC][dT][dR][dS][dR][dF][dI][dN][dC]-OH; disulfide 5-13) | 79.4 | 57.7 | 90
CC[C@@H](C)[C@H]1NC(=O)[C@@H](Cc2ccccc2)NC(=O)[C@@H](CCCNC(=N)N)NC(=O)[C@@H](CO)NC(=O)[C@@H](CO)NC(=O)[C@@H]([C@H](C)O)NC(=O)[C@H](NC(=O)[C@@H](CCCCN)NC(=O)[C@@H](CCCCN)NC(=O)[C@@H](CCCNC(=N)N)NC(=O)[C@H](N)CCCNC(=N)N)CSSC[C@H](C(=O)O)NC(=O)[C@@H](CC(N)=O)NC1=O [PSP II A16, H-rrkkctssrfinc-OH] (H-[dR][dR][dK][dK][dC][dT][dS][dS][dR][dF][dI][dN][dC]-OH; disulfide 5-13) | 61.8 | 61.5 | 90
CC[C@@H](C)[C@H]1NC(=O)[C@@H](Cc2ccccc2)NC(=O)[C@@H](CCCNC(=N)N)NC(=O)[C@@H](CO)NC(=O)CNC(=O)[C@@H]([C@H](C)O)NC(=O)[C@H](NC(=O)[C@@H](CCCCN)NC(=O)[C@@H](CCCCN)NC(=O)[C@@H](CCCNC(=N)N)NC(=O)[C@H](N)CCCNC(=N)N)CSSC[C@H](C(=O)O)NC(=O)[C@@H](CC(N)=O)NC1=O [PSP II A6, H-rrkkctGsrfinc-OH] (H-[dR][dR][dK][dK][dC][dT]G[dS][dR][dF][dI][dN][dC]-OH; disulfide 5-13) | 44.4 | 1.7 | 20
CC[C@@H](C)[C@H]1NC(=O)[C@@H](Cc2ccccc2)NC(=O)[C@@H](CCCNC(=N)N)NC(=O)[C@@H](CO)NC(=O)[C@@H]([C@H](C)O)NC(=O)[C@@H]([C@H](C)O)NC(=O)[C@H](NC(=O)[C@@H](CCCCN)NC(=O)[C@@H](CCCCN)NC(=O)[C@@H](CCCNC(=N)N)NC(=O)[C@H](N)CCCNC(=N)N)CSSC[C@H](C(=O)O)NC(=O)[C@@H](CC(N)=O)NC1=O [PSP II A17, H-rrkkcttsrfinc-OH] (H-[dR][dR][dK][dK][dC][dT][dT][dS][dR][dF][dI][dN][dC]-OH; disulfide 5-13) | 70.6 | 67.3 | 80
C[C@H](O)[C@H]1NC(=O)[C@H](N)CSSC[C@H](C(=O)O)NC(=O)[C@@H](CC(N)=O)NC(=O)[C@@H]([C@H](C)O)NC(=O)[C@@H](Cc2ccccc2)NC(=O)[C@@H](CCCNC(=N)N)NC(=O)[C@@H](CO)NC(=O)[C@@H](CCCCN)NC1=O [PSP 17, H-ctksrftnc-OH] (H-[dC][dT][dK][dS][dR][dF][dT][dN][dC]-OH; disulfide 1-9) | 74.2 | 30.8 | 9.1
CC[C@@H](C)[C@H]1NC(=O)[C@@H](Cc2ccccc2)NC(=O)[C@@H](CCCNC(=N)N)NC(=O)[C@@H](CO)NC(=O)[C@@H](Cc2c[nH]cn2)NC(=O)[C@@H]([C@H](C)O)NC(=O)[C@H](NC(=O)[C@@H](CCCCN)NC(=O)[C@@H](CCCCN)NC(=O)[C@@H](CCCNC(=N)N)NC(=O)[C@H](N)CCCNC(=N)N)CSSC[C@H](C(=O)O)NC(=O)[C@@H](CC(N)=O)NC1=O [PSP II A7, H-rrkkcthsrfinc-OH] (H-[dR][dR][dK][dK][dC][dT][dH][dS][dR][dF][dI][dN][dC]-OH; disulfide 5-13) | 81.5 | 71 | 50
CC[C@@H](C)[C@H]1NC(=O)[C@@H](Cc2ccccc2)NC(=O)[C@@H](CCCNC(=N)N)NC(=O)[C@@H](CO)NC(=O)[C@@H](CC(N)=O)NC(=O)[C@@H]([C@H](C)O)NC(=O)[C@H](NC(=O)[C@@H](CCCCN)NC(=O)[C@@H](CCCCN)NC(=O)[C@@H](CCCNC(=N)N)NC(=O)[C@H](N)CCCNC(=N)N)CSSC[C@H](C(=O)O)NC(=O)[C@@H](CC(N)=O)NC1=O [PSP II A12, H-rrkkctnsrfinc-OH] (H-[dR][dR][dK][dK][dC][dT][dN][dS][dR][dF][dI][dN][dC]-OH; disulfide 5-13) | 70.6 | 53.8 | 
